According to publication PMC10564737, “Structure-based design of a phosphotyrosine-masked covalent ligand targeting the E3 ligase SOCS2” (Nature Communications, 2023):

Target: T1, SOCS2 Cys111 (Homo sapiens, UniProt O14508)
T1 construct: MN551 covalently modifies cellular SOCS2 specifically at Cys111; endogenous in cells; host or cells: K562
T1 sequence (O14508 1-198): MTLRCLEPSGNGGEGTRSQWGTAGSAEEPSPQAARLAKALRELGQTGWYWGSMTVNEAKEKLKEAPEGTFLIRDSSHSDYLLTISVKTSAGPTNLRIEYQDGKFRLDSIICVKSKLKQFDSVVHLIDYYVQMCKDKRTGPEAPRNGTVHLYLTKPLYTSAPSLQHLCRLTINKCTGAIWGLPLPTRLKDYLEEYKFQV
Test: SOCS2 immunoprecipitation and tandem MS (LC-MS/MS) of Cys111 peptide from treated K562 cells
Type: cell-based
Settings: 6 h
Method: While CETSA and GHR pulldown experiments allow ascertaining the engagement of cellular SOCS2, distinguishing reversible binding from covalent binding remains a challenge. […] Moreover, the MS2 spectra for cells treated with 1 μM and 10 μM MN714 show a dose-dependent increase in levels of SOCS2 modification (Fig. 6e).
Cells were treated with either DMSO, 1 μM, or 10 μM MN714 for 6 h in 10 cm dish. Cells were harvested, washed with PBS, and lysed in […] RIPA buffer (Sigma-R0278: 150 mM NaCl, 1.0% IGEPAL® CA-630, 0.5% sodium deoxycholate, 0.1% SDS, 50 mM Tris, pH 8.0, and freshly added protease inhibitor tablet). Cellular debris was pelleted, the lysate supernatant was aspirated to a new tube and subjected to immunoprecipitation at 4 °C for 4 h with 3 μl anti-SOCS2 antibody coupled to 20 μl of protein A/G beads (abcam- ab109245). The beads were washed 3 times with 1× RIPA buffer and precipitated protein samples were eluted with 1 × NuPAGE™ LDS sample buffer, and 20% of the sample was analyzed by SDS-PAGE and western blot using a rabbit anti-SOCS2 primary antibody (abcam) and IRDye® 800CW donkey anti-rabbit IgG secondary antibody. The remaining precipitated protein samples were processed for mass-spec analysis. In brief, the samples were reduced with DTT alkylated with Iodoacetamide and subjected to the SP3 protein clean-up procedure. […]
LC-MS analysis was performed by the FingerPrints Proteomics Facility (University of Dundee). Analysis of peptide readout was performed on a Q-Exactive™ plus, Mass Spectrometer (Thermo Scientific) coupled to a Dionex Ultimate 3000 RS (Thermo Scientific). […]
MS raw data were analyzed using MaxQuant software, standard settings were used with the following changes and additions: The modified FASTA databases with individual substitutions of cysteines with the placeholder “U” (selenocysteine) were used[67]. […] The relative intensity of peptide […] without and with a modified cysteine (placeholder “U”) were analyzed by normalizing to total intensity of SOCS2 protein.

CC(C)(C)C(=O)OCOP(=O)(OCOC(=O)C(C)(C)C)Oc1ccc(C[C@H](NC(=O)Cc2ccc(F)cc2)C(=O)NCc2cccc(NC(=O)CCl)c2)cc1 [MN714]
relative intensity of modified peptide LDSIIUVK, normalised to total SOCS2 levels (1uM): 24.9386 | relative intensity of unmodified peptide LDSIICVK, normalised to total SOCS2 levels (1uM): 85.6581 | relative intensity of unmodified peptide LDSIICVK, normalised to total SOCS2 levels (10uM): 0
